Measurements as given in patent US20250051409A1, “MODULATORS OF PHOSPHATIDYLSERlNE DECARBOXYLASE AND USE THEREOF” (THE NATIONAL INSTITUTE FOR BIOTECHNOLOGY IN THE NEGEV LTD., priority 2021, published 2025).
Square brackets hold non-standard residues; d marks the D form. Ends that are not written are not given here. Peptide text beside a SMILES is read from it. Dmt = Cc1cc(O)cc(C)c1C[C@H](N)C(=O)O; Orn = NCCC[C@H](N)C(=O)O

Key:
NF-κB = experiment: IF staining of peptide-treated tumor sections, NF-κB; format: in vivo, nude mice; conditions: peptide-treated A549 tumors, immunofluorescence
Experimental: (§1) Sections of paraffin-embedded control and peptide treated tumors were IF stained using specific antibodies and subjected to quantification. Relative staining intensity for the nuclear proliferation marker, Ki-67 (and its (A), SMAC (B) and NF-kB (C). Results represent the means±SEM (n=3) ***P≤0.001. (G) Sections from the indicated tumors were stained with H & E, with some areas were magnified.
(§2) In order to reduce non-specific binding, sections were incubated in 10% normal goat serum for 2 h, then incubated with primary antibodies (Table 1) overnight at 4° C. […] Sections were washed with water, counterstained with hematoxylin, and mounted with Vectashield mounting medium (Vector Laboratories, Burlingame, CA).

SMAC = experiment: IF staining of peptide-treated tumor sections, SMAC; format: in vivo, nude mice; conditions: peptide-treated A549 tumors
Experimental: as §1, §2

[1] = molecular target: T1, phosphatidylserine decarboxylase (PSD) (Homo sapiens, UniProt Q9UG56); experiment: Peptide array blotted with PSD preincubated with peptide; format: binding; conditions: PSD 0.15 μM, peptide 20 μM
T1 construct: Purified recombinant protein (full length) of human phosphatidylserine decarboxylase (PSD); His tag (N); purchased Acris-OriGene; host or cells: E. coli
T1 sequence (Q9UG56 53-409): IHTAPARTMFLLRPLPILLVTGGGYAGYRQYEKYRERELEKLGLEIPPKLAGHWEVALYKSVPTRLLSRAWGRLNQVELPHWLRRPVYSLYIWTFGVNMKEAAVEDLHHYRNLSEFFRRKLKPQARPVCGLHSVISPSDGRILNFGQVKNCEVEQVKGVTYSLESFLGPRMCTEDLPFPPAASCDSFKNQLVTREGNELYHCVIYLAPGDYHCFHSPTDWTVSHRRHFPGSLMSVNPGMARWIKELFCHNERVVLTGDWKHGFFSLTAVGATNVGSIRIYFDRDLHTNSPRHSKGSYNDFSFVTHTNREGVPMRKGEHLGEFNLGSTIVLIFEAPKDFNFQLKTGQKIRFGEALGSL
Experimental: (A) Schematic presentation of peptide array and detection of their interaction with SMAC. (B) Glass-bound peptide array consisting of overlapping peptides derived from […] SMAC-interacting proteins were incubated overnight with purified SMAC (0.3 μM) and then blotted with anti-SMAC antibodies (1:1000), followed by incubation with HRP-conjugated anti-mouse IgG and detection using a chemiluminescence kit. Dark spots represent binding of SMAC to peptides derived from SMAC-interacting proteins. (C) SMAC (0.3 μM) was incubated with purified PSD (0.4 μM) and blotted as in (B). The peptide spots where PSD prevented interaction with SMAC are circled. (D) Schematic presentation of peptide array and detection of their interaction with PSD. (E) Peptide array was blotted with purified PSD (0.15 μM) and then with anti-PSD antibodies as in (B). […]
Customized 768-peptide sequences derived from 11 SMAC-interacting proteins produced by INTAVIS Peptide Services (GmbH & Co. KG, Tubingen, Germany) were arrayed on a glass slide. […] Following extensive slide washing with Tris-buffered saline containing 0.05% Tween-20, SMAC or PSD binding was detected using anti-SMAC or anti-PSD antibodies and HRP-conjugated anti-rabbit or anti-mouse IgG as a secondary antibody. […]

[2] = molecular target: T1, phosphatidylserine decarboxylase (PSD); experiment: MST binding of synthetic peptides to fluorescently-labelled purified PSD; conditions: PSD 0.25 μM, peptide 1-10 μM, 30 min at 37° C.

Experimental for A549 cell xenografts: A549 cells were S.C. inoculated into female nude mice (7×10^6 cells/mouse). Tumors sizes were measured (using a digital caliper) and volumes were calculated. When tumors volumes reached 60-100 mm3 (day 12), the mice were divided into 2 groups and xenografts were untreated (●) or treated with HtrA2/Omi-derived D-amino acid peptide targeted to the mitochondria (D-HTRA2-M, o). The tumors were injected 3 times a week to a final concentration of 50 μM. […] Tumors of A549 cell xenografts were dissected, photographed (B) and weighted (C). […] Results represent the means±SEM (n=8), **P≤0.01, ***P≤0.001.
A549 cells were inoculated subcutaneously into female nude mice (7×10^6 cells/mouse). Tumors sizes were measured (using a digital caliper) and volumes were calculated. When tumors volumes reached 60-100 mm3 (day 12), the mice were divided into 2 groups (control and treatment) and in the treatment group xenografts were treated with HtrA2/Omi-derived D-amino acid peptide (SEQ ID NO:35) targeted to the mitochondria. The tumors were injected 3 times a week to a final concentration of 50 μM or the peptide was administered by intravenous injection 2 times a week to a final concentration of 20 mg/kg. Tumors of A549 cell xenografts were dissected, photographed and weighted.

| Compound | tumor growth (A549 cell xenografts; intravenously, 20 mg/kg) | decrease of tumor weight (A549 cell xenografts; intravenously, 20 mg/kg, 2 times a week) [%] | inhibition of tumor growth (A549 cell xenografts; mouse, in vivo, iv) [%] | decrease in NF-κB expression in tumors (NF-κB) [%] | decrease in expression of SMAC in tumors (SMAC) [%] | PSD interaction with array peptides after pre-incubation of PSD with the peptide [1] | Kd [2] [µM] |
| --- | --- | --- | --- | --- | --- | --- | --- |
| Cc1cc(O)cc(C)c1C[C@H](NC(=O)[C@@H](CCCNC(=N)N)NC(=O)[C@@H](CC(C)C)NC(=O)[C@@H](CCCNC(=N)N)NC(=O)[C@@H](C)NC(=O)[C@@H](Cc1c[nH]c2ccccc12)NC(=O)[C@@H](CC(C)C)NC(=O)[C@@H](CO)NC(=O)[C@H]1CCCN1C(=O)[C@H](NC(=O)CNC(=O)[C@@H](Cc1ccc(O)cc1)NC(=O)[C@H](NC(=O)[C@H](NC(=O)[C@@H](CCCNC(=N)N)NC(=O)[C@@H](C)NC(=O)[C@@H](CCCNC(=N)N)NC(=O)[C@H]1CCCN1C(=O)[C@@H](CC(=O)O)NC(=O)[C@@H](CO)NC(=O)[C@H](NC(=O)CNC(=O)[C@@H](CO)NC(=O)[C@H](NC(=O)[C@@H](CC(C)C)NC(=O)[C@@H](CC(C)C)NC(=O)[C@@H](C)N)[C@H](C)O)[C@H](C)O)C(C)C)[C@H](C)O)[C@H](C)O)C(=O)N[C@@H](CCCN)C(=O)N[C@@H](Cc1ccccc1)C(N)=O [1C11-HTRA2-All-D-Mito] (H-[dA][dL][dL][dT][dS]G[dT][dS][dD][dP][dR][dA][dR][dV][dT][dY]G[dT][dP][dS][dL][dW][dA][dR][dL][dR][Dmt][Orn]F-NH2; N-terminus and C-terminus assumed) | inhibits tumor growth | 50 | 50 | ~90 | 80 | – | – |
| ALLTSGTSDPRARVTYGTPSLWARL [1C11] | – | – | – | – | – | eliminate PSD interaction with most peptides | 3 |
